Laboratory results reported in the NIST ThermoML archive (doi:10.1016/j.fluid.2017.10.003).
± gives the expanded uncertainty stated by the source.

Conditions: 101.33 kPa, Liquid

| Structure (SMILES) | viscosity (293.15 K) | viscosity (298.15 K) | viscosity (303.15 K) | viscosity (308.15 K) | viscosity (313.15 K) | viscosity (318.15 K) | viscosity (323.15 K) | viscosity (328.15 K) | viscosity (333.15 K) | viscosity (338.15 K) | viscosity (343.15 K) | viscosity (348.15 K) | viscosity (353.15 K) | viscosity (358.15 K) | viscosity (363.15 K) |
| --- | --- | --- | --- | --- | --- | --- | --- | --- | --- | --- | --- | --- | --- | --- | --- |
| CCCC(=O)[O-].[NH3+]CCO [2-hydroxy ethylammonium butanoate] | 2619 mPa·s | 1796 mPa·s | 1260 mPa·s | 904.36 mPa·s | 596.88 mPa·s | 445.06 ± 200 mPa·s | 335.81 ± 130 mPa·s | 256.28 ± 85 mPa·s | 199.67 ± 56 mPa·s | 153.8 ± 35 mPa·s | 122.53 ± 22 mPa·s | 98.65 ± 15 mPa·s | 80.46 ± 11 mPa·s | 66.2 ± 8.7 mPa·s | 53.33 ± 8 mPa·s |
| NCCO.O=CO [2-hydroxyethylammonium formate] | 129 ± 50 mPa·s | 98.49 ± 27 mPa·s | 71.9 ± 11 mPa·s | 56.34 ± 2.8 mPa·s | 44.88 ± 4.3 mPa·s | 36.53 ± 3.5 mPa·s | 30.1 ± 2.9 mPa·s | 24.92 ± 2.4 mPa·s | 21 ± 2.1 mPa·s | 18.98 ± 1.9 mPa·s | 16.3 ± 1.6 mPa·s | 13.96 ± 1.4 mPa·s | 12.1 ± 1.3 mPa·s | 10.57 ± 1.2 mPa·s | 9.3 ± 1.1 mPa·s |
| CC(=O)[O-].[NH3+]CCO [2-hydroxyethylammonium acetate] | 3073 mPa·s | 1974 mPa·s | 1306 mPa·s | 896.3 mPa·s | 624.5 mPa·s | 363.72 ± 150 mPa·s | 271.13 ± 93 mPa·s | 203.65 ± 58 mPa·s | 159.15 ± 37 mPa·s | 123.69 ± 23 mPa·s | 98.5 ± 14 mPa·s | 79.76 ± 8.3 mPa·s | 65.27 ± 5.6 mPa·s | 52.72 ± 4.6 mPa·s | 43.69 ± 5 mPa·s |
